Measurements from US20170247429A1, “BLOOD-BRAIN BARRIER DISRUPTING AGENTS AND USES THEREOF” (TEL HASHOMER MEDICAL RESEARCH INFRASTRUCTURE AND SERVICES …, priority 2014, published 2017).

How the values were obtained:
[1] = system: brain-glioma (CNS-1) tumor; assay: Tumor growth in glioma rat model (T1-weighted MRI tumor volumes); assay type: in vivo, Lewis male rats; details: MTX 6 mg/kg IP, EA-HSA 0.5 mg/ml CED where combined
Procedure: Intracranial inoculation of the tumor was performed as follows: a midline scalp incision was carried out under general anesthesia in order to locate the bregma. A burr hole (1 mm) was drilled on the right side, 3 mm anterior and 2 mm lateral to the bregma. A 33-gauge needle attached to a 1,000 μl syringe was placed stereotactically into the striatum to a depth of 5 mm through which a pellet of 2×10^5 CNS-1 rat glioma cells precipitated in 10 μl PBS buffer was infused into the striatum. The infusion was performed with a BASI syringe pump at a rate of 2 μl/min over a period of 5 min. The burr hole was sealed with bone wax to avoid the tumors from growing out of the skull. The intracranial inoculation of the tumor is designated Day-4 in Table 2.
EA-HSA was administered by CED into the rat brains under full anesthesia. For CED, a midline scalp incision was made under anesthesia to identify the bregma. Then, a burr hole (1 mm) was made in the right region of the skull, 3 mm anterior and 2 mm lateral to the bregma. […]
The volume (in mm^3) of BBB disruption and the increase in tumor volume were calculated from T1-weighted MR images. […] The number of pixels in the ROIs was then counted and multiplied by the volume of a single pixel (voxel). Tumor growth rates were calculated by dividing the tumor volumes at days 2 and 7 post treatment with the baseline tumor volumes (measured at day 0).

[2] = system: intracranial CNS-1 glioma tumors; assay: Survival of glioma-bearing rats (Kaplan-Meier); assay type: in vivo, Lewis male rats; details: rats bearing intracranial CNS-1 glioma; monitored up to 60 days
Procedure: The three rats groups were monitored for survival. Rats were monitored daily and sacrificed when lost>20% of body weight and/or were unable to eat or drink. Rats were monitored up to 60 days after the tumor cell implantation. The Kaplan-Meier survival curves were analyzed according to the Wilcoxon test.

[3] = rat, in vivo, ip, 6 mg/kg
Procedure: Additionally, MTX was administered intraperitoneally to naïve rats (n=26) at a dosage of 6 mg/kg body weight on days 0, 2 and 4. […] The combined administration, MTX even at three times of its maximal tolerated dose, with folinic acid prevented MTX toxicity.

SMILES: CN(Cc1cnc2nc(N)nc(N)c2n1)c1ccc(C(=O)N[C@@H](CCC(=O)O)C(=O)O)cc1 [MTX, Methotrexate]
- tumor volume normalized to day 0 (tumor growth rate) ([1]; day 2 post treatment): 2.2±0.4
- tumor volume normalized to day 0 (tumor growth rate) ([1]; day 7 post treatment): 2.2±0.4
- median survival time [2]: 12 days
- toxicity of MTX regimen [3]: symptomatic toxicity
